Measured values as given in ChEMBL document CHEMBL1201862, “PubChem BioAssay data set” (2004).
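Each compound was tested at five concentrations against cells in 96-well plates for 48 hours. Abbreviation: GI50, concentration required for 50% inhibition of growth.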 Calls of active or inactive are those of the source. Rule as the data show it: active = GI50 up to about 1.1 µM and inactive = higher.

Experiments:
Experiment in all cases: NCI anticancer screen, dose series, 48 h
[1] = tested on: ACHN
[2] = tested on: EKVX
[3] = tested on: HCT-116
[4] = tested on: HCT-15
[5] = tested on: HL-60
[6] = tested on: HOP-62
[7] = tested on: IGROV-1
[8] = tested on: KM12
[9] = tested on: MCF7
[10] = tested on: MDA-MB-435
[11] = tested on: MOLT-4
[12] = tested on: NCI-H226
[13] = tested on: OVCAR-3
[14] = tested on: SF-268
[15] = tested on: SF-539
[16] = tested on: SN12C
[17] = tested on: SR
[18] = tested on: SW-620
[19] = tested on: TK-10
[20] = tested on: UACC-62

Compound | GI50 [1] | GI50 [2] | GI50 [3] | GI50 [4] [µM] | GI50 [5] | GI50 [6] | GI50 [7] | GI50 [8] | GI50 [9] | GI50 [10] | GI50 [11] | GI50 [12] | GI50 [13] | GI50 [14] | GI50 [15] | GI50 [16] | GI50 [17] | GI50 [18] | GI50 [19] | GI50 [20]
COc1cccc2c(Nc3ccc(S(=O)(=O)NC(C)=O)cc3)c3ccc([N+](=O)[O-])cc3nc12 | 26.2 µM (inactive) | 40.6 µM (inactive) | 30.5 µM (inactive) | 47 | 36 µM (inactive) | > 78.2 µM (inactive) | 11.3 µM (inactive) | 11 µM (inactive) | 13.1 µM (inactive) | 31.6 µM (inactive) | 17.2 µM (inactive) | 29.2 µM (inactive) | 32.5 µM (inactive) | 25.1 µM (inactive) | 60.5 µM (inactive) | 57.1 µM (inactive) | 4.15 µM (inactive) | 45.7 µM (inactive) | 22.4 µM (inactive) | 31.4 µM (inactive)
O=c1c2cccnc2n2n1Cc1ccccc1C2 | > 100 µM (inactive) | 71.3 µM (inactive) | > 100 µM (inactive) | > 100 | > 100 µM (inactive) | > 100 µM (inactive) | > 100 µM (inactive) | – | > 100 µM (inactive) | > 100 µM (inactive) | > 100 µM (inactive) | > 100 µM (inactive) | > 100 µM (inactive) | > 100 µM (inactive) | > 100 µM (inactive) | > 100 µM (inactive) | > 100 µM (inactive) | > 100 µM (inactive) | > 100 µM (inactive) | > 100 µM (inactive)
CC(=O)Oc1ccccc1C(=O)O [ASPIRIN] | > 100 µM (inactive) | > 100 µM (inactive) | > 100 µM (inactive) | > 100 | > 100 µM (inactive) | > 100 µM (inactive) | – | > 100 µM (inactive) | > 100 µM (inactive) | > 100 µM (inactive) | > 100 µM (inactive) | > 100 µM (inactive) | > 100 µM (inactive) | > 100 µM (inactive) | > 100 µM (inactive) | > 100 µM (inactive) | > 100 µM (inactive) | > 100 µM (inactive) | > 100 µM (inactive) | > 100 µM (inactive)
c1cc2c(cc1NC1=NCCO1)CCC2 | – | > 10 µM (inactive) | 4.49 µM (inactive) | > 10 | 5.61 µM (inactive) | > 10 µM (inactive) | > 10 µM (inactive) | > 10 µM (inactive) | > 10 µM (inactive) | 8.04 µM (inactive) | > 10 µM (inactive) | – | > 10 µM (inactive) | > 10 µM (inactive) | 3.08 µM (inactive) | > 10 µM (inactive) | > 10 µM (inactive) | 8.26 µM (inactive) | > 10 µM (inactive) | > 10 µM (inactive)
CC1(C)C=Cc2c(cc(O)c3c(=O)c4cc(Cl)ccc4[nH]c23)O1 | 2.42 µM (inactive) | 0.469 µM (active) | 2.99 µM (inactive) | 3.27 | 2.84 µM (inactive) | 4.08 µM (inactive) | 5.31 µM (inactive) | 2.2 µM (inactive) | 2.88 µM (inactive) | 3.35 µM (inactive) | 2.54 µM (inactive) | – | 0.469 µM (active) | 3.86 µM (inactive) | 4.13 µM (inactive) | 3.24 µM (inactive) | 3.24 µM (inactive) | 3.55 µM (inactive) | 4.5 µM (inactive) | 2.58 µM (inactive)
C=C(Cl)C(Cl)(CBr)CCC(Cl)C(C)(C)Cl (stereo not drawn) | 1.77 µM (inactive) | 8.38 µM (inactive) | 0.638 µM (active) | 3.57 | 0.713 µM (active) | 1.11 µM (active) | 6.84 µM (inactive) | 0.375 µM (active) | 0.879 µM (active) | 2.05 µM (inactive) | 17.7 µM (inactive) | 22.2 µM (inactive) | 1.61 µM (inactive) | 1.08 µM (active) | 0.443 µM (active) | 7.38 µM (inactive) | 15.1 µM (inactive) | 1.47 µM (inactive) | 1.14 µM (inactive) | –
N#CC1(C#N)[C@@H]2CCC=C(Sc3ccccc3)[C@@H]21 | 15.5 µM (inactive) | 18.5 µM (inactive) | 15.7 µM (inactive) | 17.7 | 8.59 µM (inactive) | – | 19.8 µM (inactive) | 14.9 µM (inactive) | 10.4 µM (inactive) | 12.9 µM (inactive) | 14.5 µM (inactive) | 13.9 µM (inactive) | 17.2 µM (inactive) | 20.1 µM (inactive) | 15.5 µM (inactive) | 16.4 µM (inactive) | 13.1 µM (inactive) | 11.9 µM (inactive) | 14.6 µM (inactive) | 18.4 µM (inactive)
N#Cc1c(-c2ccc(Cl)cc2)cc(-c2ccc(Nc3ccnc4cc(Cl)ccc34)cc2)[nH]c1=O | 32 µM (inactive) | > 82.2 µM (inactive) | 44.2 µM (inactive) | > 100 | > 100 µM (inactive) | 15.1 µM (inactive) | > 100 µM (inactive) | > 61 µM (inactive) | > 100 µM (inactive) | > 100 µM (inactive) | > 58.6 µM (inactive) | > 100 µM (inactive) | > 100 µM (inactive) | 26.2 µM (inactive) | > 95.7 µM (inactive) | – | > 52.5 µM (inactive) | > 100 µM (inactive) | 13.1 µM (inactive) | > 100 µM (inactive)
COc1ccc(/N=C(/C[S+]([O-])c2ccc(C)cc2)C(F)(F)F)cc1 (stereo not drawn) | 50.6 µM (inactive) | > 100 µM (inactive) | > 100 µM (inactive) | > 100 | 19.1 µM (inactive) | – | > 100 µM (inactive) | 27.9 µM (inactive) | > 100 µM (inactive) | > 100 µM (inactive) | 53.3 µM (inactive) | > 100 µM (inactive) | > 100 µM (inactive) | – | > 100 µM (inactive) | > 100 µM (inactive) | > 100 µM (inactive) | > 100 µM (inactive) | > 100 µM (inactive) | 10.6 µM (inactive)
Fc1ccc2c3c([nH]c2c1)CCNC3 | 65.3 µM (inactive) | > 100 µM (inactive) | > 100 µM (inactive) | > 100 | > 100 µM (inactive) | > 100 µM (inactive) | > 100 µM (inactive) | > 100 µM (inactive) | > 100 µM (inactive) | 77.1 µM (inactive) | > 100 µM (inactive) | 59.6 µM (inactive) | – | > 100 µM (inactive) | > 100 µM (inactive) | > 100 µM (inactive) | > 100 µM (inactive) | > 100 µM (inactive) | > 100 µM (inactive) | > 100 µM (inactive)
C=CCN1CCN([C@H](c2ccc(C(=O)N(CC)CC)cc2)c2cccc(OC)c2)CC1 | > 25 µM (inactive) | > 25 µM (inactive) | > 25 µM (inactive) | > 25 | > 25 µM (inactive) | > 25 µM (inactive) | > 25 µM (inactive) | > 25 µM (inactive) | > 25 µM (inactive) | > 25 µM (inactive) | > 25 µM (inactive) | > 25 µM (inactive) | > 25 µM (inactive) | > 25 µM (inactive) | > 25 µM (inactive) | > 25 µM (inactive) | > 25 µM (inactive) | > 25 µM (inactive) | – | > 25 µM (inactive)
CCCCCC/C=C\CCCCCCCCC(=O)c1cccc(OC)c1OC | > 100 µM (inactive) | > 100 µM (inactive) | 41.7 µM (inactive) | > 100 | 14.8 µM (inactive) | > 100 µM (inactive) | 35.4 µM (inactive) | 84.7 µM (inactive) | > 10 µM (inactive) | 84.7 µM (inactive) | 25.7 µM (inactive) | > 100 µM (inactive) | – | > 100 µM (inactive) | > 100 µM (inactive) | > 100 µM (inactive) | 64.9 µM (inactive) | > 100 µM (inactive) | > 100 µM (inactive) | > 100 µM (inactive)
CC(=O)OCC(OC(C)=O)C(OC(C)=O)C(OC(C)=O)C(/C=N\Nc1nc2ccccc2c(=O)[nH]1)=N/Nc1nc2ccccc2c(=O)[nH]1 (stereo not drawn) | > 100 µM (inactive) | > 100 µM (inactive) | > 100 µM (inactive) | > 100 | > 100 µM (inactive) | > 100 µM (inactive) | – | 97.7 µM (inactive) | > 100 µM (inactive) | > 100 µM (inactive) | > 100 µM (inactive) | > 100 µM (inactive) | > 100 µM (inactive) | > 100 µM (inactive) | 18.2 µM (inactive) | > 100 µM (inactive) | > 100 µM (inactive) | > 100 µM (inactive) | – | > 100 µM (inactive)
CCOP(=O)(OCC)/C(F)=C/c1ccc(F)cc1 | > 100 µM (inactive) | > 100 µM (inactive) | > 100 µM (inactive) | > 100 | > 100 µM (inactive) | > 100 µM (inactive) | > 100 µM (inactive) | > 100 µM (inactive) | > 100 µM (inactive) | > 100 µM (inactive) | > 100 µM (inactive) | – | > 100 µM (inactive) | > 100 µM (inactive) | > 100 µM (inactive) | > 100 µM (inactive) | > 100 µM (inactive) | > 100 µM (inactive) | > 100 µM (inactive) | 91.2 µM (inactive)
CCOC(=O)/C(=C\NC(C)(C)C)c1nc2ccccc2[nH]1 | 20.4 µM (inactive) | 12.2 µM (inactive) | 29.5 µM (inactive) | 34.2 | 13.2 µM (inactive) | 22.4 µM (inactive) | 22 µM (inactive) | 19.9 µM (inactive) | 18.6 µM (inactive) | 20 µM (inactive) | – | 22.9 µM (inactive) | 17.5 µM (inactive) | 23.7 µM (inactive) | 16.8 µM (inactive) | 28.3 µM (inactive) | 12.7 µM (inactive) | 25.3 µM (inactive) | 14 µM (inactive) | 16.3 µM (inactive)
